Results reported in PMC3224213, “Bacterial membrane activity of α-peptide/β-peptoid chimeras: Influence of amino acid composition and chain length on the activity against different bacterial strains” (BMC Microbiology, 2011).

How the values were obtained:
[1] = system: Serratia marcescens ATCC 8100; test: Killing kinetics (time-kill); assay type: cell-based; settings: S. marcescens
Procedure: (§1) In vitro time-kill curves for chimera 1, 2 and 3 were determined against S. aureus 8325 (MIC μM: chimera 1 5.9; chimera 2 2.8; chimera 3 18.7) and Serratia marcescens ATCC 8100 (MIC μM: chimera 1 46.8; chimera 2 45.5; chimera 3 150.0). These two bacterial strains represent organisms susceptible and tolerant to the chimeras, respectively. The bactericidal effect of the three chimeras was tested at MIC in two independent experiments; additionally the effect of chimera 2 was tested at ¼ and 1/2 times MIC. In brief, a suspension prepared from fresh overnight colonies as described above was transferred to 2 mL PBS or cation-adjusted MHB with chimera added (from a 10 × MIC solution) to give a similar bacterial cell density as employed in the MIC determination; the resulting suspension was then incubated at 37°C, 300 rpm. Samples for colony determination were taken at 0, 1, 2, 4, 6 and 8 hours after addition and transferred to a ten-fold dilution row. Colony counts were determined after incubation for 24 hours at 37°C.

S. marcescens [2] = test: ATP leakage bioluminescence assay; assay type: cell-based, Serratia marcescens; settings: 1000 μg/mL chimera
Procedure: (§2) Pore formation as caused by peptide addition was determined by measuring ATP leakage from the bacterial cell using a bioluminescence assay. The assay was used to estimate differences between sub-typical chimeras 1, 2 and 3 on S. aureus and S. marcescens and to evaluate the effect of chain length of mixed type chimeras 4a, 4b and 4c on S. aureus. In brief, bacteria were grown in TSB at 37°C for 24 hours and then re-inoculated in TSB at 37°C for 6-8 hours until an absorbance at 546 nm of 2.5 for S. aureus and 2.0 for S. marcescens and then harvested (10 min at 2,000 × g). The bacteria were grown to a high absorbance since a high concentration of bacteria was necessary in order to get a measurable response in the ATP leakage assay. Cells were washed once in 50 mM potassium phosphate buffer (pH 7.0) and once in 50 mM HEPES buffer (pH 7.0), before the pellet was resuspended in HEPES buffer to an OD546 ~ 10, and then stored on ice. Before chimera addition bacteria were pre-incubated with 0.2% (w/v) glucose to energize the cells. In general a chimera dose of 1000 μg/mL (corresponding to 280-552 μM for all chimeras) was used for all assays; however, for determining dose response curves additional doses of 100 (28-55 μM), 250 (71-137 μM) and 500 (140-276 μM) μg/mL were tested, and only the immediate release was noted. Total ATP and extracellular ATP were determined with a luminometer […]. Intracellular volumes of S. aureus and S. marcescens (0.85 μm^3 and 1.7 μm^3, respectively) were subtracted from the total volume before calculating the extracellular ATP concentration; the intracellular ATP concentration could then be calculated from this and the total ATP. ATP leakage kinetics was determined on a bacterial suspension prepared as above. Samples were taken at time 0, 5, 10, 20, 30 and 60 minutes and viable counts determined. Both the ATP leakage assay and killing kinetics performed under the same assay conditions were performed in two independent experiments.

S. aureus [3] = test: ATP leakage bioluminescence assay; assay type: cell-based, Staphylococcus aureus; settings: 1000 μg/mL chimera
Procedure: as §2

S. aureus 8325 = test: Killing kinetics (time-kill); assay type: cell-based, Staphylococcus aureus
Procedure: as §1

S. aureus [4] = test: Killing by chimera with or without EDTA pre-treatment; assay type: cell-based, Staphylococcus aureus
From the text: (§3) Although there was no systematic difference in the MIC values between Gram-positive and -negative bacteria, we speculated that the Gram-negative outer membrane could act as a barrier to the penetration of AMPs, since polymyxin B resistance in S. marcescens has been linked to induced changes in the amount and composition of lipopolysaccharide (LPS) in the outer membrane. Moreover, similar resistance-conferring membrane alterations have also been seen for other bacteria in response to polymyxin B treatment. Accordingly, we studied how a membrane-destabilizing pre-treatment of S. marcescens, E. coli and S. aureus with the divalent metal cation-chelating agent EDTA would affect the killing caused by chimera 1. In these experiments we used a non-lethal 0.5 mM concentration of EDTA together with the non-lethal 1.5 μM concentration of the tested AMP analogue. […] In contrast, cell numbers of both S. marcescens and E. coli were reduced with 4-5 log from an initial value of log ~5.5 within the first 4 hours (not shown) upon treatment with a sub-lethal EDTA concentration together with the chimera.

E. coli = test: as above; assay type: cell-based, Escherichia coli
From the text: as §3

S. marcescens [5] = test: as above; assay type: cell-based, Serratia marcescens
From the text: as §3

[6] = 1.5 μM chimera alone, data not shown
[7] = HEPES buffer pH 7.0, two independent experiments
[8] = during the first minutes, HEPES buffer pH 7.0, OD546 ~ 10, two independent experiments
[9] = 0.5 mM EDTA and 1.5 μM chimera, within the first 4 hours, initial log ~5.5, not shown

## CC(=O)N[C@@H](CCCCNC(=N)N)C(=O)N(CCC(=O)N[C@@H](CCCCNC(=N)N)C(=O)N(CCC(=O)N[C@@H](CCCCNC(=N)N)C(=O)N(CCC(=O)N[C@@H](CCCCNC(=N)N)C(=O)N(CCC(=O)N[C@@H](CCCCNC(=N)N)C(=O)N(CCC(=O)N[C@@H](CCCCNC(=N)N)C(=O)N(CCC(N)=O)[C@@H](C)c1ccccc1)[C@@H](C)c1ccccc1)[C@@H](C)c1ccccc1)[C@@H](C)c1ccccc1)[C@@H](C)c1ccccc1)[C@@H](C)c1ccccc1 [Chimera 2]
[1]; at MIC in MHB, within the first hour, 37°C, two independent experiments
  decrease in the number of viable bacteria: 2 log
[1]; at MIC in PBS, 37°C
  viable cells after treatment in PBS: no viable cells remained after the first hour
[1]; ¼ MIC in MHB
  effect on cell number at ¼ MIC: reduction in cell number
S. marcescens [2]
  ATP leakage (in words): caused leakage of ATP
S. aureus [3]
  ATP leakage (in words): caused leakage of ATP
S. aureus 8325; at MIC in MHB, 37°C, two independent experiments
  number of viable cells at MIC in MHB: did not decrease until after 6 hours
S. aureus 8325; at MIC in PBS, after 4 hours
  decrease in viable cell numbers: 2 log

## CC(=O)N[C@@H](CCCCNC(=N)N)C(=O)N(CCC(=O)N[C@@H](CCCCNC(=N)N)C(=O)N(CCC(=O)N[C@@H](CCCCNC(=N)N)C(=O)N(CCC(=O)N[C@@H](CCCCNC(=N)N)C(=O)N(CCC(=O)N[C@@H](CCCCNC(=N)N)C(=O)N(CCC(=O)N[C@@H](CCCCNC(=N)N)C(=O)N(CCC(N)=O)Cc1ccccc1)Cc1ccccc1)Cc1ccccc1)Cc1ccccc1)Cc1ccccc1)Cc1ccccc1 [Chimera 1]
S. aureus [4]; [6]
  reduction in the number of viable cells, chimera alone: 0.5 log
S. aureus [4]; 0.5 mM EDTA and 1.5 μM chimera
  viable cells, EDTA then chimera versus chimera only: No discernable difference
S. marcescens [2]
  ATP leakage (in words): caused leakage of ATP
S. marcescens [2]; [7]
  intracellular ATP concentration: rapidly approached zero
S. marcescens [2]; [8]
  extracellular ATP concentration: ~ 5 μM
E. coli; [6]
  reduction in the number of viable cells, chimera alone: 1.5 log
E. coli; [9]
  reduction of cell numbers, EDTA together with chimera: 4-5 log
S. aureus [3]
  ATP leakage (in words): caused leakage of ATP
S. aureus [3]; [7]
  intracellular ATP concentration: rapidly approached zero
S. aureus [3]; [8]
  extracellular ATP concentration: ~ 20 μM
S. marcescens [5]; [6]
  reduction in the number of viable cells, chimera alone: 1.5 log
S. marcescens [5]; [9]
  reduction of cell numbers, EDTA together with chimera: 4-5 log
